Values after ≈ are worked out from the molar mass of the structure shown.
Experiments:
[1] = tested on: PAS-resistant Mtb mutant folC (E153G); format: cell-based, Mycobacterium tuberculosis
[2] = tested on: PAS-resistant Mtb mutant folC (I43T); format: cell-based, Mycobacterium tuberculosis
[3] = tested on: PAS-resistant Mtb mutant thyX (−16 C->T); format: cell-based, Mycobacterium tuberculosis
[4] = tested on: INCA-R Mtb strains; assay: microbe, parasite or virus in culture; format: cell-based, Mycobacterium tuberculosis
[5] = tested on: Mtb; settings: rising up to; ref Zhao et al., 2014; cited from earlier work

For Nc1ccc(C(=O)O)c(O)c1 [PAS, para-aminosalicylic acid], the “MIC, folC (E153G)” value [1] was 32 µg/mL (≈ 209 µM), the “MIC, folC (I43T)” value [2] was 32 µg/mL (≈ 209 µM) and the “MIC, thyX (−16 C->T)” value [3] was 16 µg/mL (≈ 104 µM). For the same molecule, the “elevation of MIC in INCA-R strains (loss of potency)” value [4] was 32 fold, the MIC ([4]; Mycobacterium tuberculosis, read-out: MIC of INCA-R strains) was 16 µg/mL and the “MIC values of PAS-resistant mutants” value [5] was “up to 8 μg/mL”.
